Values joined by “and” are separate entries in the source; they are usually repeats but may differ in a detail not shown here. Equal values may be shown once.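 Test compounds were applied to cells in 96-well plates for 48 hours at 5 doses. GI50 marks 50% less growth. TGI: total growth inhibition.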
Experiments:
Test in all cases: inhibition of tumour cell growth, NCI panel, 48 h
EKVX NSCLC = test system: EKVX NSCLC
IGROV1 ovarian = test system: IGROV1 ovarian
UACC-62 melanoma = test system: UACC-62 melanoma
OVCAR-4 ovarian = test system: OVCAR-4 ovarian
K-562 leukemia = test system: K-562 leukemia
SNB-75 CNS = test system: SNB-75 CNS
HOP-92 NSCLC = test system: HOP-92 NSCLC
SNB-19 CNS = test system: SNB-19 CNS
NCI/ADR-RES ovarian = test system: NCI/ADR-RES ovarian
HS 578T breast = test system: HS 578T breast

Structure (SMILES) | TGI (EKVX NSCLC) | TGI (IGROV1 ovarian) | TGI (UACC-62 melanoma) | TGI (OVCAR-4 ovarian) | TGI (K-562 leukemia) [µM] | TGI (SNB-75 CNS) | TGI (HOP-92 NSCLC) | TGI (SNB-19 CNS) [µM] | TGI (NCI/ADR-RES ovarian) [µM] | TGI (HS 578T breast) [µM] | GI50 (EKVX NSCLC) [µM] | GI50 (IGROV1 ovarian) [µM] | GI50 (UACC-62 melanoma) [µM] | GI50 (OVCAR-4 ovarian) [µM] | GI50 (K-562 leukemia) [µM] | GI50 (SNB-75 CNS) [µM] | GI50 (HOP-92 NSCLC) [µM] | GI50 (SNB-19 CNS) [µM] | GI50 (NCI/ADR-RES ovarian) [µM] | GI50 (HS 578T breast) [µM]
CN(C(=O)C12C3C4C1C1C2C3C41C(N)=O)C(C)(C)C (stereo not given) | > 100 µM | > 100 µM | > 100 µM | > 100 µM | > 100 | > 100 µM | > 100 µM | > 100 |  |  |  |  |  |  |  |  |  |  |  | 
COc1ccc2c(c1)C(=O)c1ccc(OC)cc1C2=S | > 100 µM | > 100 µM | > 100 µM |  | > 100 | 87.4 µM | > 100 µM | > 100 |  |  |  |  |  |  |  |  |  |  |  | 
COc1cc(OC)c2nc(C)c3c(c2c1)SCC3 | 52.9 µM | 34.7 µM | 56.4 µM | 38.5 µM | > 100 |  |  | 34.8 | 65.5 | 57.7 |  |  |  |  |  |  |  |  |  | 
O=C1CCCCC1S(=O)(=O)c1ccccc1 (stereo not given) | > 100 µM | > 100 µM | > 100 µM | > 100 µM | > 100 | > 100 µM | > 100 µM | > 100 |  |  |  |  |  |  |  |  |  |  |  | 
C[C@@]12CCC(=O)c3coc(c31)C(=O)c1cc3c(cc12)C(=O)C=CC3=O | > 1 µM and 48.6 µM | > 1 µM and 59.3 µM | > 1 µM and 28.9 µM | > 1 µM and 32.1 µM | > 56.9 | > 1 µM and 43.9 µM | > 1 µM and 19.6 µM | > 100 |  |  | > 1 | > 1 | > 1 | > 1 | > 1 | > 1 | > 1 | > 1 |  | 
O=S(=O)(/C=C/c1ccc(F)cc1)Cc1ccc(CS(=O)(=O)/C=C/c2ccc(F)cc2)cc1 | > 100 µM | > 100 µM | > 100 µM | > 100 µM | > 100 | > 100 µM | > 100 µM | > 100 |  |  |  |  |  |  |  |  |  |  |  | 
CCOC(C[C@H](O[Si](C)(C)C(C)(C)C)[C@H]1COC(=S)S1)OCC | > 100 µM |  |  |  | > 100 |  |  | > 100 |  |  |  |  |  |  |  |  |  |  |  | 
Nc1ncnc2c1N=C(c1ccc3c(c1)OCO3)CC(c1ccc([N+](=O)[O-])cc1)N2 (stereo not given) | > 100 µM | 3.24 µM | > 100 µM | > 100 µM | > 100 | > 100 µM |  | > 100 | > 100 | > 100 | 92.6 | 0.0684 | 76.9 | > 100 | 22.5 | 39.4 |  | 84.9 | 55.4 | 9.18
CCCCOC(=O)N1CCN(/[N+]([O-])=N/Oc2ccc([N+](=O)[O-])cc2[N+](=O)[O-])CC1 | 23.5 µM | 6.44 µM | 26.8 µM |  | > 100 | 37.9 µM |  | 36.8 | > 100 | > 100 | 8.01 | 2.17 | 13.6 |  | 5.97 | 21.1 |  | 15.1 | 3.43 | 20.9
C=C1CC2OC(=O)C(=C)C2C(O)C2C(=C)CCC12 (stereo not given) | 19.7 µM | 35.5 µM | 12.8 µM |  | 30.5 | 21.5 µM | 5.84 µM | 30.8 |  |  |  |  |  |  |  |  |  |  |  | 
Cc1ccc2c(c1)-c1c3c(nn1-c1ccccc1)-c1ccccc1SC3O2 (stereo not given) | > 100 µM | > 100 µM |  |  | > 100 | > 100 µM | > 100 µM |  |  |  |  |  |  |  |  |  |  |  |  | 
NC(=O)CN(CC(N)=O)C(N)=O | > 100 µM | > 100 µM | > 100 µM | > 100 µM | > 100 | > 100 µM | > 100 µM | > 100 |  |  |  |  |  |  |  |  |  |  |  | 
Cc1cc([N+](=O)[O-])c(NS(=O)(=O)c2cccc(C(=O)O)c2)cc1-c1cccnc1 | > 100 µM | > 100 µM | > 100 µM | > 100 µM | > 100 | > 100 µM | > 100 µM | > 100 | > 100 |  | > 100 | > 100 | > 100 | > 100 | > 100 | > 100 | > 100 | > 100 | > 100 | 
COC(=O)C1(Cc2ccc3c(c2)CCC3)Cc2ccccc2C1O (stereo not given) | 69.4 µM | 51.7 µM | 28.1 µM | 27.8 µM | 40.5 |  |  | 35.6 | 60.1 | 48.1 |  |  |  |  |  |  |  |  |  | 
O=C(c1ccc(Cl)cc1Cl)C1[C@H]2C(=O)N(c3ccc(Cc4ccc(N5C(=O)[C@@H]6ON(c7ccccc7)C(C(=O)c7ccc(Cl)cc7Cl)[C@@H]6C5=O)cc4)cc3)C(=O)[C@H]2ON1c1ccccc1 (stereo not given in full) |  | > 50 µM | > 50 µM | > 50 µM | > 50 | > 50 µM |  | > 50 |  |  |  |  |  |  |  |  |  |  |  | 
CC1(C)CC(O)C(C)(C)[C@@H](O)C1 (stereo not given in full) | > 100 µM | > 100 µM | > 100 µM | > 100 µM | > 100 | > 100 µM |  | > 100 | > 100 | > 100 |  |  |  |  |  |  |  |  |  | 
N/N=C(/C(=O)Nc1cccc(Cl)c1)C(C(=O)c1ccc(O)cc1O)C1OC(=O)c2ccccc21 (stereo not given) | > 100 µM | > 100 µM | > 100 µM | > 100 µM | > 100 |  |  | > 100 |  |  |  |  |  |  |  |  |  |  |  | 
O=C(/C=C/Sc1cc(C(F)(F)F)cc(C(F)(F)F)c1)c1ccc(Cl)cc1 | 30.5 µM | 6.55 µM | 15.6 µM | 30.7 µM | 24.6 | 25.7 µM |  | 25.4 | 46.3 | 43.7 | 14.3 | 2.38 | 4.58 | 13.5 | 2.92 | 12.8 |  | 12.8 | 23.4 | 16.5
NNC(=O)C1CCC(=O)N1S(=O)(=O)c1ccccc1 (stereo not given) | > 100 µM | > 100 µM | > 100 µM | > 100 µM | > 100 | > 100 µM | > 100 µM | > 100 |  |  |  |  |  |  |  |  |  |  |  | 
CCOc1cc2c(C(=O)CC)c(O)ccc2o1 | > 100 µM | > 100 µM | > 52.8 µM | > 56.8 µM | > 81.7 | > 100 µM | > 100 µM | > 100 |  |  |  |  |  |  |  |  |  |  |  | 
CC1CCC/C1=C(/I)C(=O)c1ccccc1 (stereo not given) | > 100 µM | > 100 µM | > 100 µM | > 100 µM | > 100 | 85 µM |  | > 100 | > 100 | > 100 |  |  |  |  |  |  |  |  |  | 
OC1(C23CC4CC(CC(C4)C2)C3)CSCC1(O)C12CC3CC(CC(C3)C1)C2 (stereo not given) | > 100 µM | > 100 µM | > 100 µM | > 100 µM | > 100 | > 100 µM | > 100 µM | > 100 |  |  |  |  |  |  |  |  |  |  |  | 
